ChEMBL document CHEMBL1201862, “PubChem BioAssay data set” (2004)
The source made the active and inactive calls.

How the values were obtained:
[1] = target: Dual specificity protein phosphatase 3 (Homo sapiens, UniProt P51452); assay: inhibition constants for human DUSP3 – biochemical, colorimetric, SAR follow-up (AID 2004)
[2] = target: Dual specificity tyrosine-phosphorylation-regulated kinase 1A (Rattus norvegicus, UniProt Q63470); assay type: biochemical, Homo sapiens
[3] = NIH-3T3 fibroblast cytotoxicity, dose response, cytotoxicity control, cell-based, fluorescence, Alamar Blue, secondary assay (AID 2327); assay type: functional;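 further: NIH-3T3 mouse fibroblasts cultured with fluconazole at 8 µg/mL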
[4] = cells; assay type: functional, cell-based
[5] = cells; assay type: functional, cell-based; remark: listed apart in the source
[6] = target: Cyclin-dependent kinase 5/CDK5 activator 1 (Homo sapiens, UniProt Q00535); assay: blockade of human CDK5 activity – biochemical, cherry-picked samples, set 2, dose response (AID 504545)
[7] = viability loss in HeLa cells – cytotoxicity control for MgcRacGAP inhibitor project, dose response (AID 624300); assay type: functional
[8] = target: T1, Rac GTPase-activating protein 1 (Homo sapiens, UniProt Q9H0H5); assay: blockers of MgcRacGAP-driven Rac1 GTP hydrolysis – biochemical, ADP Hunter fluorescence, primary and confirmatory, confirmation (AID 624330); assay type: functional
T1 sequence (Q9H0H5 whole entry): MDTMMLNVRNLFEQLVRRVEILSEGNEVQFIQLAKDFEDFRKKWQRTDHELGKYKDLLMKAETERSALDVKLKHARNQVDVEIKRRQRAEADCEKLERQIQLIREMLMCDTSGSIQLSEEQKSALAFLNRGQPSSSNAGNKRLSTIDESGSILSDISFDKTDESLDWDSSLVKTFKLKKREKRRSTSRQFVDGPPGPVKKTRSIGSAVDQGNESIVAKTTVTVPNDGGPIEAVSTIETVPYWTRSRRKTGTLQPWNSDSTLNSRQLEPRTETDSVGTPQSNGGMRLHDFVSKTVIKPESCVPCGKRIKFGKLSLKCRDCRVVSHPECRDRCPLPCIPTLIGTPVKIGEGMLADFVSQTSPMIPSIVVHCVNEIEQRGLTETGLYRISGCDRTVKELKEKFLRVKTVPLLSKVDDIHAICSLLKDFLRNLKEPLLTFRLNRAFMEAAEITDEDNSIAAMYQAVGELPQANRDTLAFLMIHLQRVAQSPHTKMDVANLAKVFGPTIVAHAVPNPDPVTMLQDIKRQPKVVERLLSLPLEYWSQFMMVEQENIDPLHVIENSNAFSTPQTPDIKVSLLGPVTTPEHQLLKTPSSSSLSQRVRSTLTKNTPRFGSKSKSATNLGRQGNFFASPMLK

[9] = target: T2, Protein RecA (Mycobacterium tuberculosis, UniProt P9WHJ3); assay: Fluorescence Cell-Free Homogeneous Dose Retest to Identify Inhibitors of RecA-Intein Splicing Activity. [Related pubchem assays (depositor defined):AID2097, AID2223, AID489010, AID492950]; assay type: functional
T2 sequence (P9WHJ3 whole entry): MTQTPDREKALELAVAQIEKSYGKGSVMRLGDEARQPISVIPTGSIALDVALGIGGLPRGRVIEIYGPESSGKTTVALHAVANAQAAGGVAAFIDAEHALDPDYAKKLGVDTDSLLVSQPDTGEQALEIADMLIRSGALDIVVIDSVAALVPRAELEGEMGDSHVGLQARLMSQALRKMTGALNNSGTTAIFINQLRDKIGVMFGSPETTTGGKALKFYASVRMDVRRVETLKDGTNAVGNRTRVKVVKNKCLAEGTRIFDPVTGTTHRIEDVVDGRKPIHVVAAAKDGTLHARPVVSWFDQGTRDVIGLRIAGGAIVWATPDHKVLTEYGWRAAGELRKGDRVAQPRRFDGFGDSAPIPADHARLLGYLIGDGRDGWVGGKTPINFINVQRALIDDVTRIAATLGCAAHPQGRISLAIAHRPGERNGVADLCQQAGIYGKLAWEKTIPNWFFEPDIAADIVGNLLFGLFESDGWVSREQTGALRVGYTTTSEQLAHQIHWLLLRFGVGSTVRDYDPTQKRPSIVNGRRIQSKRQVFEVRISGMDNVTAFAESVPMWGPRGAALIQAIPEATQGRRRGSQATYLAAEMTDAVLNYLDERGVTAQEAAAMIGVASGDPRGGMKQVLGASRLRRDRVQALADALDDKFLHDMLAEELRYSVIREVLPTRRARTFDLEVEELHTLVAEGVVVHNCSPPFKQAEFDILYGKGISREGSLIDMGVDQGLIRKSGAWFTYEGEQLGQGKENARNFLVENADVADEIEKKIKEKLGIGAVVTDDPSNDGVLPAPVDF

[10] = fluconazole-exposed Candida albicans growth modulators – fluorescence, retest, confirmation (AID 2467); assay type: functional, cell-based
[11] = Luminescence Cell-Based Dose Retest to Confirm Inhibitors of Cancer Stem Cells. [Related pubchem assays (depositor defined):AID2717, AID2721]; assay type: functional; conditions: Homo sapiens
[12] = target: T3, Replicative DNA helicase DnaB (Mycobacterium tuberculosis, UniProt P9WMR3); assay: DnaB intein splicing inhibitors, dose response, biochemical, cell-free fluorescence (AID 449749); assay type: functional
T3 sequence (P9WMR3 whole entry): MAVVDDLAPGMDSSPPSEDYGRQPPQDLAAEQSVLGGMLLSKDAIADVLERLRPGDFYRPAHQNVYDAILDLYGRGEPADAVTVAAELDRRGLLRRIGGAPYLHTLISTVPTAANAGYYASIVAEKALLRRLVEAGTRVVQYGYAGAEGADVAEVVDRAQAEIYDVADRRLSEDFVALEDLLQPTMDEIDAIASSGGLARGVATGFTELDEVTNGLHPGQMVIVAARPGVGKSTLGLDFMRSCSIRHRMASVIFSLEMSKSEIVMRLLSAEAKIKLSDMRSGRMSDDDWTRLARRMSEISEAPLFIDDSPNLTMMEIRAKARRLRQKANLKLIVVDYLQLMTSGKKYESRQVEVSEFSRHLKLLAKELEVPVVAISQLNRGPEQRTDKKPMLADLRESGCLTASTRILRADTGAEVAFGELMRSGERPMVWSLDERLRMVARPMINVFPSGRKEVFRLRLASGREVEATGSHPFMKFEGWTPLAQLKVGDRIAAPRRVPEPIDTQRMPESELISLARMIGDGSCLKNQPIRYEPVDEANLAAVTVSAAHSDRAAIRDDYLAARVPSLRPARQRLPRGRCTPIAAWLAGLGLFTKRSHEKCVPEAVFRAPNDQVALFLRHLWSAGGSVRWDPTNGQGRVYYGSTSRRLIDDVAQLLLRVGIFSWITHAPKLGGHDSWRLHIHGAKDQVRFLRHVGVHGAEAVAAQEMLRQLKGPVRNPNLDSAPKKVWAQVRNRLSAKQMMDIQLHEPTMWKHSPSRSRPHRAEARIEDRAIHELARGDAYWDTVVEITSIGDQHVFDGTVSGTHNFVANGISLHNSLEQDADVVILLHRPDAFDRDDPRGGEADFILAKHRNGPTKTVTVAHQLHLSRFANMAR

Dual specificity protein phosphatase 3, sequence (P51452 whole entry): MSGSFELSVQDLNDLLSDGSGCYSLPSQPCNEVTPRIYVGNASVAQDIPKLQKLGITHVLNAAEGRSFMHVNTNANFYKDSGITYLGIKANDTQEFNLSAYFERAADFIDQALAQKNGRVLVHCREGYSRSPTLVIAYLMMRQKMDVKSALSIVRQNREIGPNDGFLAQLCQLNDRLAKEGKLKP
Cyclin-dependent kinase 5/CDK5 activator 1, sequence (Q00535 whole entry): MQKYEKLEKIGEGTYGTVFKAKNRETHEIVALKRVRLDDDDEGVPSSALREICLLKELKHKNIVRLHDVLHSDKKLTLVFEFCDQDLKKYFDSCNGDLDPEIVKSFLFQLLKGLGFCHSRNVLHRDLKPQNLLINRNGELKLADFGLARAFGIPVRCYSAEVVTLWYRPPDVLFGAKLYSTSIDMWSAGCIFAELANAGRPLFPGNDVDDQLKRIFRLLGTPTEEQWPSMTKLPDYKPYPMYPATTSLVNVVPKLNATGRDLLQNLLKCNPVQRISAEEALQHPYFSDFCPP
Cyclin-dependent kinase 5/CDK5 activator 1, sequence (Q15078 whole entry, further chain): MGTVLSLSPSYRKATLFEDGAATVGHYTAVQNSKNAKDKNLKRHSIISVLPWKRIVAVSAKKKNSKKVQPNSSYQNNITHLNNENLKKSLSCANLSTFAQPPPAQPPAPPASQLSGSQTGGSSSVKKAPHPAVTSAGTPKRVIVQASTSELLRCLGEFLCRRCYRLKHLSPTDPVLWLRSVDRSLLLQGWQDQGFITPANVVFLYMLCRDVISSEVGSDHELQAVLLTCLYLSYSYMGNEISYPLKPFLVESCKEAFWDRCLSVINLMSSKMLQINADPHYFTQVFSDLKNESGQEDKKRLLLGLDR

Row | Compound | Ki [1] | AC50 [2] | EC50 [3] | EC50 [4] | EC50 [5] | AC50 [6] | CC50 [7] | IC50 [8] | EC50 [9] | EC50 [10] | AC50 [11] | AC50 [12]
1 | Fc1c(F)c(C(F)(F)F)c(F)c(F)c1Oc1cccc2cccnc12 | 122 µM (inactive) | – | – | – | – | – | – | – | – | – | – | –
2 | Oc1ccc(/C=N/Nc2ccc(C(F)(F)F)cn2)c(O)c1 | – | 5.23 µM (active) | > 150 µM (inactive) | 27.7 µM (active) | 44.7 µM (active) | 11.8 µM (active) | 100 µM (active) | 37 µM (active) | 110 µM (inconclusive) | > 38 µM (not active) | 8.01 µM (active) | 81.4 µM (active)
